# Like-named read-outs stand apart in the source and are kept apart here.
# Assays:
# [1] = cited from earlier work
# [2] = aqueous solution; cited from earlier work
# L. monocytogenes = assay: Microbial growth/survival of L. monocytogenes in frankfurter samples; assay type: cell-based; settings: equal dosage levels, storage 5° C., no nitrites
# Method: No nitrites were added to the samples. […] The frankfurters were subject to sensory testing.
# [3] = system: B. cereus and B. subtilis; assay: Bacillus spp. counts in inoculated bread post baking; assay type: cell-based; settings: salt level 1.2% w/w, immediately post baking and after cooling
# Method: (§1) A salt sample according to Example 7 of the invention was used to test the microbial growth in bread. […] Inoculated and uninoculated loaves (controls) were microbiologically analyzed over 6 days storage at 21° C. and 25° C. Analysis was carried out on day 0 (post baking and after cooling), day 1, day 2 and day 6. The results highlighted two main differences between the two salt types.
# [4] = system: total aerobic viable counts; assay: Total aerobic viable counts in un-inoculated control bread during storage; assay type: cell-based; settings: end of storage (Day 6), both storage temperatures (21° C. and 25° C.)
# Method: as §1, with “Analysis was carried out on day 0 (post baking and after cooling), day 1, day 2 and day 6.” left out
compound,measurement,setting,value
"[Cl-].[K+] [KCl, potassium chloride]",Aqueous solubility,[1]; Temperature 0 °C,21.74 mass-% of solute
same,Aqueous solubility,[1]; Temperature 20 °C,25.39 mass-% of solute
same,Aqueous solubility,[1]; Temperature 40 °C,28.59 mass-% of solute
same,Aqueous solubility,[1]; Temperature 60 °C,31.40 mass-% of solute
same,Aqueous solubility,[1]; Temperature 80 °C,33.86 mass-% of solute
same,Aqueous solubility,[1]; Temperature 100 °C,36.05 mass-% of solute
"[Cl-].[Cl-].[Mg+2] [MgCl2, magnesium chloride]",stability constant,[2],zero
"[Cl-].[Na+] [NaCl, sodium chloride]",storage time until increase of L. monocytogenes to a count of 4 Log,L. monocytogenes,23 days
same,log drop in Bacillus spp. counts,[3],up to 3.4 Log
same,total aerobic viable counts,[4],10^4-10^5 cfu/g

# From patent US20160058060A1, “FOOD SALT PRODUCT” (SMART SALT INC, priority 2013, published 2016)
